Laboratory results as given in patent US12589071B2, “Suckable and/or melt-in-mouth tablet based on hyaluronic acid and chondroitin sulphate and salts thereof” (SOFAR SWISS SA, priority 2017, dated 2026).

System: patients with a first diagnosis of GERD with extraesophageal (upper) symptoms
Assay: Randomised open-label clinical study, Experimental Part (II): RSI (Reflux Symptom Index) questionnaire
Assay type: in vivo, human
Source text: The aim of the present study was to assess, in patients who, at the first diagnosis, presented with extraesophageal symptoms associated with gastroesophageal reflux disease (GERD), the effect of a 6-week treatment with the composition C1 comprising a chondroitin sulphate, a hyaluronic acid or a salt thereof and an aluminium hydroxide, in combination with a treatment with proton pump inhibitors (PPI) versus treatment with PPIs alone; i.e. to verify the reduction in the frequency of symptoms in patients by means of the Likert questionnaire, and the severity of upper symptoms, by means of the RSI (Reflux Symptom Index) questionnaire, and to assess Responders and Non-Responders in the two groups of patients after 6 weeks of treatment versus the baseline.
The multi-centre prospective, randomised, open-label clinical study, with two parallel arms of treatment, followed by the FU period, provided for the treatment, for 6 weeks, of 78 patients diagnosed for the first time, who presented with upper symptoms ascribable to a diagnosis of GERD, in the presence/absence of typical symptoms. The patients were thus randomly assigned, on an open-label basis, in a 1:1 ratio: • 39 patients were treated with C1+PPIs (omeprazole) for 6 weeks; and • 39 patients were treated only with a PPI (omeprazole) for 6 weeks. […]
On these occasions patients filled out the RSI questionnaire, for the assessment of the severity of symptoms, and the Likert scale, for the assessment of the reduction in the frequency of symptoms. […] In this period, only the use of omeprazole (PPI), at a constant dosage, was allowed, according to the indications of the investigator, both to the patients included in the untreated group and in the treatment group, as a rescue medication to control symptoms and safety data were assessed. […]

## COc1ccc2[nH]c([S+]([O-])Cc3ncc(C)c(OC)c3C)nc2c1 (stereo not drawn) [PPI, omeprazole]
V4 (6 weeks) versus baseline V1, N 28 (C1 + PPI), N 36 (PPI)
  MEAN of DELTA RSI per treatment group: −13.69
After 6 weeks of treatment versus baseline, one line per subject, preliminary, listed as IPPI
  DELTA (RSI V4 versus RSI V1, individual subject): −11
Examination V4 after 6 weeks of treatment, one line per subject, preliminary, listed as IPPI
  RSI V4 (individual subject score): 13
